Results on nine compounds are retold here after paper PMC7767166, “Imidazole and Imidazolium Antibacterial Drugs Derived from Amino Acids” (Pharmaceuticals, 2020).

By MIC is commonly meant the lowest concentration found to suppress growth. The term IC50 denotes the concentration that inhibits the measured activity by half.

One assay deals with Bacillus subtilis 1904-E. Nature of the assay: Bacterial growth inhibition assay (microdilution, OD 560 nm), MIC. The class given is cell-based. The following applies: read-out: B. subtilis MIC. Here is the method: (§1) The in vitro antibacterial activities of the synthesized compounds were examined against E. coli and B. subtilis. Bacteria were incubated in culture media with varying concentrations of the examined compound and the antibacterial properties were determined by observation of the optical density at 560 nm (bacteriostatic activity) and by the Resazurin cell viability assay (bactericidal activity). The corresponding minimal bactericidal concentration (MBC) and minimum inhibitory concentration (MIC) values that were obtained are summarized in Table 1 (please refer to Table S1 for MIC and MBC values in μM). Two bacterial strains were used in the antibacterial assays: Escherichia coli DH5α as a Gram-negative model and Bacillus subtilis 1904-E as a Gram-positive model. Both bacterial strains were donated to our laboratory and can be provided on request by contacting the corresponding authors. Both bacterial strains were incubated at 37 °C and the pre-inoculum incubation time was of 24 h. Liquid Luria-Bertani (LB) medium was used for E. coli DH5α and nutrient broth (NB) for B. subtilis. The bacteria cell bank suspensions were thawed and inoculated in the appropriate liquid broth for 24 h at 37 °C with mild agitation. A dilution from these culture solutions was used for the following tests, corresponding to an inoculum of 1 × 10^7 CFU/mL. Stock solutions of all the tested compounds were prepared in DMSO at a concentration of 100 mg/mL, aliquoted, and stored at −20 °C. (A) Bacterial growth inhibition assay: Conditions here described are for testing 6 different concentrations of the compounds, with triplicates of each condition. Therefore, 4 compounds were tested per plate. An adapted version of the microdilution method was used. Firstly, the imidazole derivatives were dissolved in the corresponding broth at 2× the highest tested concentration. Then, 100 μL of the 2× solutions were added to the first (A) and second (B) row wells of a 96-well plate. In addition, 100 μL of liquid medium had been previously added to rows B to F. Subsequent dilutions at 1:2 are prepared in rows B to F, by withdrawal of 100 μL from the previous row (more concentrated) to the next row (half diluted), mixing well. Then, 100 μL were discarded from the last row (F). By now, there are 100 μL in each well, and 100 μL of bacterial suspension at 10^7 CFU/mL were added to each well. Then, the 96-well plates were incubated for 24 h at 37 °C under mild agitation. Bacterial growth was controlled both by visual observation of the turbidity in each well and by measuring the optical density (OD) at 560 nm at time 0 h and 24 h. Results are recorded as the lowest concentration of antimicrobial agent that inhibits visible growth of the bacteria, and were compared with the OD variation of a control culture containing E. coli or B. subtilis (+ control) and of solution of the tested compounds without bacteria (- control).
For orientation: In broth dilution the organism is exposed to a series of concentrations in liquid medium.

The next assay concerns Escherichia coli DH5α. The assay is described as above. The class given is cell-based. As to conditions: read-out: E. coli MIC. Here is the method: as §1
A further assay has as its system HEK-293 cells. Nature of the assay: Cell proliferation assay for cytotoxicity (MTT). The assay is classed as cell-based, human. The following applies: 2 days of incubation. Here is the method: Human embryonic kidney cells, HEK-293, were chosen as a cell model to evaluate the cytotoxicity of the compounds. The HEK-293 cells were incubated in the cell culture medium with varying concentrations of the examined compound and the impact of treatment was measured using the MTT cell viability assay.
Cell culture media for cytotoxicity studies were purchased from Gibco (Grand Island, NY, USA). Fetal bovine serum (FBS) was obtained from HyClone (UT, USA). Supplements and other chemicals not listed in this section were obtained from Sigma Chemical Co. (St. Louis, MO, USA). Plastics for cell culture were supplied by Thermo Scientific BioLite (Madrid, Spain). All tested compounds were dissolved in DMSO at a concentration of 10 mM and stored at −20 °C until use. HEK-293 cell lines were maintained in Dulbecco’s modified Eagle’s medium (DMEM) containing glucose (1 g/L), glutamine (2 mM), penicillin (50 μg/mL), streptomycin (50 μg/mL), and amphotericin B (1.25 μg/mL) supplemented with 10% FBS.
In 96-well plates, 3 × 10^3 HEK-293 cells per well were seeded and incubated with serial dilutions of the tested compounds (from 200 to 0.2 μM) to a total volume of 100 μL of their growth media. The 3-(4,5-dimethylthiazol-2-yl)-2,5-diphenyltetrazolium bromide (MTT; Sigma Chemical Co.) dye reduction assay in 96-well microplates was used, as previously described. After 2 days of incubation (37 °C, 5% CO2 in a humid atmosphere), 10 μL of MTT (5 mg/mL in phosphate-buffered saline, PBS) was added to each well, and the plate was incubated for a further 3 h (37 °C). The supernatant was discarded and replaced by 100 µL of DMSO to dissolve formazan crystals. The absorbance was then read at 540 nm by Multiskan^TM FC microplate reader. For all concentrations of compound, cell viability was expressed as the percentage of the ratio between the mean absorbance of treated cells and the mean absorbance of untreated cells. Three independent experiments were performed, and the IC50 values (i.e., concentration half inhibiting cell proliferation) were graphically determined using GraphPad Prism 4 software.

Setting [1] is: 24 h, 37 °C, nutrient broth, minimum of three experiments.
Where [2] appears, read: mode of at least three experiments.
[3] abbreviates: 24 h, 37 °C, LB medium, minimum of three experiments.

Where “and” joins values, the source holds several entries; their conditions need not be identical. Identical values can stand only once. Like-named read-outs stand apart in the source and are kept apart here.

On to `CCCCCCCCCCCCNC(=O)[C@H](C(C)C)n1ccnc1` [Compound 1a], for which the minimum inhibitory concentration (MIC) is 16 µg/mL with Bacillus subtilis 1904-E (setting [1]), 48 µM in the assay with Bacillus subtilis 1904-E (setting [2]), above 2000 µg/mL in the assay with Escherichia coli DH5α (setting [3]) and above 6000 µM with Escherichia coli DH5α (setting [2]). Besides, the IC50 in the assay with HEK-293 cells (Homo sapiens, HEK293, 48 h) is 9.6 µM and 3.2 µg/mL.

`CCCCCCCCCCCCNC(=O)[C@H](C(C)C)n1cc[n+](Cc2ccccc2)c1` [Compound 1b]: the MIC in the assay on Bacillus subtilis 1904-E (setting [1]) came to 4 µg/mL; with Bacillus subtilis 1904-E (setting [2]), 9 µM; in the assay with Escherichia coli DH5α (setting [3]), 128 µg/mL; in the assay on Escherichia coli DH5α (setting [2]), 288 µM. Moreover, the IC50 in the assay with HEK-293 cells (Homo sapiens, HEK293, 48 h) was 1.8 µM and 0.8 µg/mL.

For the compound `CCCCCCCCCCCCNC(=O)[C@H](C(C)C)n1cc[n+](Cc2cccc(C[n+]3ccn([C@@H](C(=O)NCCCCCCCCCCCC)C(C)C)c3)c2)c1` [Compound 1c], the MIC in the assay with Bacillus subtilis 1904-E (setting [1]) amounted to 16 µg/mL; in the assay with Bacillus subtilis 1904-E (setting [2]) it was 19 µM; with Escherichia coli DH5α (setting [3]), 256 µg/mL; in the assay on Escherichia coli DH5α (setting [2]) it was 269 µM. Besides, the IC50 with HEK-293 cells (Homo sapiens, HEK293, 48 h) is 19 µM and 18 µg/mL.

As to `CCCCNC(=O)[C@H](C(C)C)n1ccnc1` [Compound 2a], the MIC with Bacillus subtilis 1904-E (setting [1]) was above 2000 µg/mL; with Bacillus subtilis 1904-E (setting [2]), above 9000 µM; in the assay on Escherichia coli DH5α (setting [3]) it was above 2000 µg/mL; in the assay with Escherichia coli DH5α (setting [2]), above 9000 µM. In addition, in the assay with HEK-293 cells (Homo sapiens, HEK293, 48 h), the IC50 was above 45 µg/mL.

Regarding `CCCCNC(=O)[C@H](C(C)C)n1cc[n+](Cc2ccccc2)c1` [Compound 2b], the MIC is above 1000 µg/mL with Bacillus subtilis 1904-E (setting [1]); 2590 µM with Bacillus subtilis 1904-E (24 h, mode of at least three experiments); above 2000 µg/mL in the assay on Escherichia coli DH5α (setting [3]); above 5000 µM with Escherichia coli DH5α (setting [2]). The compound further yielded an IC50 with HEK-293 cells (Homo sapiens, HEK293, 48 h) above 79 µg/mL.

With `CCCCNC(=O)[C@H](C(C)C)n1cc[n+](Cc2cccc(C[n+]3ccn([C@@H](C(=O)NCCCC)C(C)C)c3)c2)c1` [Compound 2c], the MIC in the assay with Bacillus subtilis 1904-E (setting [1]) is 128 µg/mL; with Bacillus subtilis 1904-E (setting [2]), 180 µM; with Escherichia coli DH5α (setting [3]), 1000 µg/mL; with Escherichia coli DH5α (setting [2]), 1440 µM. The same compound had an IC50 in the assay with HEK-293 cells (Homo sapiens, HEK293, 48 h) above 142 µg/mL.

With `CCCCCCCCCCCCNC(=O)[C@H](Cc1ccccc1)n1ccnc1` [Compound 3a], the MIC in the assay on Bacillus subtilis 1904-E (setting [1]) is 16 µg/mL; in the assay on Bacillus subtilis 1904-E (setting [2]) it was 42 µM; with Escherichia coli DH5α (setting [3]), 1000 µg/mL; with Escherichia coli DH5α (setting [2]), 2660 µM. The IC50 with HEK-293 cells is below 36 µM; with HEK-293 cells (Homo sapiens, HEK293, 48 h), 19 µM and 7.3 µg/mL.

Consider `CCCCCCCCCCCCNC(=O)[C@H](Cc1ccccc1)n1cc[n+](Cc2ccccc2)c1` [Compound 3b], for which the MIC with Bacillus subtilis 1904-E (setting [1]) is 4 µg/mL; in the assay on Bacillus subtilis 1904-E (setting [2]), 7 µM; with Escherichia coli DH5α (setting [3]), 32 µg/mL; with Escherichia coli DH5α (setting [2]), 57 µM. Also, the IC50 in the assay with HEK-293 cells (Homo sapiens, HEK293, 48 h) is 109 µM and 61 µg/mL.

In the case of `CCCCCCCCCCCCNC(=O)[C@@H](Cc1ccccc1)n1cc[n+](Cc2cccc(C[n+]3ccn([C@@H](Cc4ccccc4)C(=O)NCCCCCCCCCCCC)c3)c2)c1` [Compound 3c], the MIC stood at 64 µg/mL in the assay on Bacillus subtilis 1904-E (setting [1]), 62 µM with Bacillus subtilis 1904-E (setting [2]), 2000 µg/mL in the assay on Escherichia coli DH5α (setting [3]) and 1990 µM in the assay with Escherichia coli DH5α (setting [2]). The IC50 with HEK-293 cells is below 36 µM; with HEK-293 cells (Homo sapiens, HEK293, 48 h) it was 36 µM and 37 µg/mL.
